Results published in ChEMBL document CHEMBL1201862, “PubChem BioAssay data set” (2004).
Activity calls are given as the source filed them.

Experiments:
Cytochrome P450 1A2 = target: T1, Cytochrome P450 1A2 (Homo sapiens, UniProt P05177);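 also: PubChem cytochrome P450 panel assay, CYP1A2 panel member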
T1 sequence (P05177 whole entry): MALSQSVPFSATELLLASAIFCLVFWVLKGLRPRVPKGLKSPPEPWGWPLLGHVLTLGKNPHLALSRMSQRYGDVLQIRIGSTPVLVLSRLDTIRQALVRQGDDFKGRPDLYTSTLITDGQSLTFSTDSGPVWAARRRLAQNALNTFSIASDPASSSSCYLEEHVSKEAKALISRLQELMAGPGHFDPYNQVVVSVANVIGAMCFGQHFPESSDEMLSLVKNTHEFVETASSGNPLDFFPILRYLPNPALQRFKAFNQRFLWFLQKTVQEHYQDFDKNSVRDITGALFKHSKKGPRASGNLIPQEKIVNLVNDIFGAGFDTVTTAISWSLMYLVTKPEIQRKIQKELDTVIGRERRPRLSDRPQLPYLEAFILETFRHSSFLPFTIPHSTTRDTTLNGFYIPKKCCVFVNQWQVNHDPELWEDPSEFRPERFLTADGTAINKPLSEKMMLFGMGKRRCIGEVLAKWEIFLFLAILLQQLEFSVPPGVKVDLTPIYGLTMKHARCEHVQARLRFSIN

Large T antigen = Large T antigen (Simian virus 40, UniProt P03070); format: functional, Betapolyomavirus macacae;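 also: Confirmatory-stage PubChem screen for compounds that inhibit SV40 T antigen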
Chain of Large T antigen (P03070 whole entry): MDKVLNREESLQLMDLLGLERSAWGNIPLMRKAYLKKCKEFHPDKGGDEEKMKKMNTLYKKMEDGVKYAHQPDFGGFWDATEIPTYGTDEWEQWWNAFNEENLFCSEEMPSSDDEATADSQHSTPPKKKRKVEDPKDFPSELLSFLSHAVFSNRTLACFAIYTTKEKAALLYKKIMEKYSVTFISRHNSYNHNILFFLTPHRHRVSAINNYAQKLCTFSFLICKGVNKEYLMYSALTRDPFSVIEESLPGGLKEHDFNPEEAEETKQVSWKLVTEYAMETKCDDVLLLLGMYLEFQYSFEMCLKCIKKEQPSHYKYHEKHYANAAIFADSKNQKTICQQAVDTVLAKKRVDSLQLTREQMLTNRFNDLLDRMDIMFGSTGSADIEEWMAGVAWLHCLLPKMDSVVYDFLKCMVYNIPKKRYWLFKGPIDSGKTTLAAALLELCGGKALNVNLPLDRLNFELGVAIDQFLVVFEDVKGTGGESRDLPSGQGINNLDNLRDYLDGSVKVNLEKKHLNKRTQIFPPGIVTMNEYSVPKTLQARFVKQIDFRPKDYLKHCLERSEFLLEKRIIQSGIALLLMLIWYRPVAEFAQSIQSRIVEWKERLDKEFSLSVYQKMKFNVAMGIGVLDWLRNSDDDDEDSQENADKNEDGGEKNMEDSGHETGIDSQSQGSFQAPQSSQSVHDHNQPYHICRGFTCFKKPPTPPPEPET

[1] = target: T2, Rac GTPase-activating protein 1 (Homo sapiens, UniProt Q9H0H5); assay: MgcRacGAP GTPase-activating activity inhibitors, confirmation, biochemical, ADP Hunter fluorescence, primary and confirmatory (AID 624330); format: functional
T2 sequence (Q9H0H5 whole entry): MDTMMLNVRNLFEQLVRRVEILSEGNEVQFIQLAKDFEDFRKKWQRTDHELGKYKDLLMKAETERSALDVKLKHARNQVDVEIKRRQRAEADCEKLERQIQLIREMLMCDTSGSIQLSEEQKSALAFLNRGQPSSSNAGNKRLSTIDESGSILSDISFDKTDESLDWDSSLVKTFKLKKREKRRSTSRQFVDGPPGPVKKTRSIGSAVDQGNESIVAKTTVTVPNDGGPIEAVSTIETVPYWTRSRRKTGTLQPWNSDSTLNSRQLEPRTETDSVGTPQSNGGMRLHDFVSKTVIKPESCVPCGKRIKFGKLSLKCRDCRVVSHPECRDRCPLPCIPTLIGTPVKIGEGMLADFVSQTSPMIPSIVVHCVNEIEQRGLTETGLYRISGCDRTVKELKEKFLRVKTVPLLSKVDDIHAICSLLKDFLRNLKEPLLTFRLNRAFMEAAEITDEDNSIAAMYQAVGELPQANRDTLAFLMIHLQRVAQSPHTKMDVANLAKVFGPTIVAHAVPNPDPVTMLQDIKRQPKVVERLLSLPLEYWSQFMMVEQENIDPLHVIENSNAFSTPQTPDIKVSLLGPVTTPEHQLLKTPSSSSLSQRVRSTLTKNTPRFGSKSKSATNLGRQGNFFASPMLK

[2] = target: T3, Corticotropin-releasing factor receptor 2/Corticotropin-releasing factor-binding protein (Homo sapiens, UniProt P24387+Q13324); assay: activators of CRF receptor 2 with binding protein – uHTS hits, confirmation (AID 602473); format: functional; conditions: read-out: EC50_Mean
T3 sequence (Q13324 whole entry): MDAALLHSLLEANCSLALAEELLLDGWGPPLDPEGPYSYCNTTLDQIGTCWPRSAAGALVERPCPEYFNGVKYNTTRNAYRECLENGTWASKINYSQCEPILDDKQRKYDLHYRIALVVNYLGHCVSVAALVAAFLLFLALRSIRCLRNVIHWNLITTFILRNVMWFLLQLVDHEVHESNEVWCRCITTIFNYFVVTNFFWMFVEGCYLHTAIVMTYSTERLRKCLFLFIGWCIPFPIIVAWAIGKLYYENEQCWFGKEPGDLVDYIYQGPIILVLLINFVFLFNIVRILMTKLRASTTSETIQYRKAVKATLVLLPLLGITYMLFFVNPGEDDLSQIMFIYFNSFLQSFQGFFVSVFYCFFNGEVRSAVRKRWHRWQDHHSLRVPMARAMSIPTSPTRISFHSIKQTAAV
T3 sequence (P24387 whole entry): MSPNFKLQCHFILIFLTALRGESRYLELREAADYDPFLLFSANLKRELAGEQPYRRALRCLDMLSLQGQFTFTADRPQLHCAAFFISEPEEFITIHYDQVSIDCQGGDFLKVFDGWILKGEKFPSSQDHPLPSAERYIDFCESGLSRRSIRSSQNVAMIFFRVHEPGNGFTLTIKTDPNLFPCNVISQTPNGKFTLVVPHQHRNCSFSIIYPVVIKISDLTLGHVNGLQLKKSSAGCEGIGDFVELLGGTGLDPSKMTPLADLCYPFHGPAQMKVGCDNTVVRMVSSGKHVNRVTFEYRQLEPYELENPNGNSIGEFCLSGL

[3] = target: T3, Corticotropin-releasing factor receptor 2/Corticotropin-releasing factor-binding protein; assay: Dose Response confirmation of uHTS hits for small molecule antagonists of the CRF-binding protein and CRF-R2 receptor complex.; format: functional; conditions: read-out: IC50_Mean
Cytochrome P450 2C19 = Cytochrome P450 2C19 (Homo sapiens, UniProt P33261); assay: Cytochrome panel assay with activity outcomes. Panel member name: p450-cyp2c19 Compounds with AC50 equal or less than 10 uM are considered active; format: functional; conditions: read-out: AC50
Chain of Cytochrome P450 2C19 (P33261 whole entry): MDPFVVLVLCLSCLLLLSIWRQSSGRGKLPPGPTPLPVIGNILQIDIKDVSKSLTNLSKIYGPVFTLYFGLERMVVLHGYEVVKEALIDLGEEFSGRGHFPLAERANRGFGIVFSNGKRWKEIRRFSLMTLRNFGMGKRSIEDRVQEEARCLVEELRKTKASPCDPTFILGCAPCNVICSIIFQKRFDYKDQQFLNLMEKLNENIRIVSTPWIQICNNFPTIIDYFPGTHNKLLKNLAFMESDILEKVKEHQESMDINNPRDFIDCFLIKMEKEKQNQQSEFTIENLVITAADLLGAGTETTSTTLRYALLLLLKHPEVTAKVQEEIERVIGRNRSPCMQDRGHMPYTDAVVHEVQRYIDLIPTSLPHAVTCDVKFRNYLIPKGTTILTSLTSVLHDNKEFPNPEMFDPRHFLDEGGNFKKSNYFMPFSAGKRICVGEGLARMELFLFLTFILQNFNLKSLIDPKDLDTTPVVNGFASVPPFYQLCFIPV

Cytochrome P450 3A4 = Cytochrome P450 3A4 (Homo sapiens, UniProt P08684);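 also: CYP3A4 tested as one member of a cytochrome P450 panel screen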
Chain of Cytochrome P450 3A4 (P08684 whole entry): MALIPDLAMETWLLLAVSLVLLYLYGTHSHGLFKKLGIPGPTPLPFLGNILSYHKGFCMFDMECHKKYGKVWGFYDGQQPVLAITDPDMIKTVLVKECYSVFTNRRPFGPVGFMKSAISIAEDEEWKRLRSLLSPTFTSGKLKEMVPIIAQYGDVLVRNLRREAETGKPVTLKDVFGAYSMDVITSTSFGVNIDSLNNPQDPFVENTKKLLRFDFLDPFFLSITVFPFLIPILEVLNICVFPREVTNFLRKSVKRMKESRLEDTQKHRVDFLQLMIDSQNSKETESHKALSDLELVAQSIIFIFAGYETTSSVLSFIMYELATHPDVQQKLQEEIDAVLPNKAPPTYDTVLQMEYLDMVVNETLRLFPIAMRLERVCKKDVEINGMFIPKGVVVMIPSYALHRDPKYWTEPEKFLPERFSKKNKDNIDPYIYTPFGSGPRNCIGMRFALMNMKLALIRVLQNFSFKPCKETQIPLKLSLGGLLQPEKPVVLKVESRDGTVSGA

[4] = target: T4, Replicative DNA helicase DnaB (Mycobacterium tuberculosis, UniProt P9WMR3); assay: DnaB intein splicing inhibitors, dose response, biochemical, cell-free fluorescence (AID 449749); format: functional
T4 sequence (P9WMR3 whole entry): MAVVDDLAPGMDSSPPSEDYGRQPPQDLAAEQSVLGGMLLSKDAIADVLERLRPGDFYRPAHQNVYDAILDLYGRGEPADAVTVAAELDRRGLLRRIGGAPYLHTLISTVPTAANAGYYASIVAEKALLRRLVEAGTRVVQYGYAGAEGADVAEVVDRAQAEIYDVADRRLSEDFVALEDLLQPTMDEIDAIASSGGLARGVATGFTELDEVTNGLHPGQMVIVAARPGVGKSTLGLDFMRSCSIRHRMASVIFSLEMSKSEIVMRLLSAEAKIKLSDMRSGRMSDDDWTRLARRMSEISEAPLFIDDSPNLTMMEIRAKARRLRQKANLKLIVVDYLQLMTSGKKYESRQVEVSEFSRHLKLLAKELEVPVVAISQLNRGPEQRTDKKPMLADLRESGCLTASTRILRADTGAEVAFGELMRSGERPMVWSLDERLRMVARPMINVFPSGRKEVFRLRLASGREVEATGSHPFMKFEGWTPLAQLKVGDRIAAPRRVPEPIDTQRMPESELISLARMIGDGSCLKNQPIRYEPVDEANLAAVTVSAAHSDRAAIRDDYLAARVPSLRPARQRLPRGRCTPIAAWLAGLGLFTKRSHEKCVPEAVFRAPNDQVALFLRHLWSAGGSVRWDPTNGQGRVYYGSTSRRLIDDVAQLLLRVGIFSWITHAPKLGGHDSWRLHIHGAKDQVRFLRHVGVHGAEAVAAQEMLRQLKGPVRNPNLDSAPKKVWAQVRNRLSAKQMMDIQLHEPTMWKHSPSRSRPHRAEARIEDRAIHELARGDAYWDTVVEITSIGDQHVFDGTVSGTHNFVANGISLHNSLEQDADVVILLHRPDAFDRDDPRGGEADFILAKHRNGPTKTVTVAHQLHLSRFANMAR

Protein RecA = target: T5, Protein RecA (Mycobacterium tuberculosis, UniProt P9WHJ3); assay: Fluorescence Cell-Free Homogeneous Dose Retest to Identify Inhibitors of RecA-Intein Splicing Activity. [Related pubchem assays (depositor defined):AID2097, AID2223, AID489010, AID492950]; format: functional
T5 sequence (P9WHJ3 whole entry): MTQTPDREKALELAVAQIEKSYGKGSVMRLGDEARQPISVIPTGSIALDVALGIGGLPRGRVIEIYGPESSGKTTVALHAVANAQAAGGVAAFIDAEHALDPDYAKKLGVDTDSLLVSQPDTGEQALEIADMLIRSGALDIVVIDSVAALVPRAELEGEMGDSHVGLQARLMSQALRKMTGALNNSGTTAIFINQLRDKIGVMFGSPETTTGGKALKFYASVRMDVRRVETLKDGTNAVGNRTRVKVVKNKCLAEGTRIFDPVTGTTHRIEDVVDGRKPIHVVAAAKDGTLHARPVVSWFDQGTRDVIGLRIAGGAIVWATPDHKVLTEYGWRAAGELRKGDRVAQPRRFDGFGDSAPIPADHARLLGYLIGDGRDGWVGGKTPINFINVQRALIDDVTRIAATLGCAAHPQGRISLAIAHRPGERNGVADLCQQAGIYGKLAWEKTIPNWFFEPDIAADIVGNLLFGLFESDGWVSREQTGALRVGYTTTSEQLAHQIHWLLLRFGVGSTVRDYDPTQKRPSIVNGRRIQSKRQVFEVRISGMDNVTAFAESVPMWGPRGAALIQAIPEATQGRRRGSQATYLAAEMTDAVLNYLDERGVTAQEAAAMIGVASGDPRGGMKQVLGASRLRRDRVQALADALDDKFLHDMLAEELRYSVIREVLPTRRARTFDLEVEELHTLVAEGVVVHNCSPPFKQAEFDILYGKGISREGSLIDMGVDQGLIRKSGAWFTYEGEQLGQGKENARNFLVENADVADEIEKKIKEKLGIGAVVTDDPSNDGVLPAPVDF

[5] = Shn3 3'UTR reporter inhibitors, dose response, cell-based, Clone20 osteoblasts, firefly luciferase, cherry-picked (AID 624132); format: functional;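 also: firefly luciferase luminescence from reporter carrying the Shn3 3'UTR in osteoblasts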
[6] = control 3'UTR Renilla luciferase suppression, dose response, counter-screen for Shn3 inhibitor project, cell-based, Clone20-Shn3RL, cherry-picked (AID 624133); format: functional
[7] = target: T6, Heat shock factor protein 1 (Mus musculus, UniProt P38532); assay: HSF1 potentiators in luciferase reporter cells, confirmation, cell-based, NIH3T3, luminescence, dose retest (AID 435004); format: functional;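 also: stress induced by proteasome inhibitor MG132 added 30 min after compound; luciferase reporter driven by HSF1 response element in NIH3T3 cells; actives raise luminescence as potentiators of the MG132 stress response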
T6 sequence (P38532 whole entry): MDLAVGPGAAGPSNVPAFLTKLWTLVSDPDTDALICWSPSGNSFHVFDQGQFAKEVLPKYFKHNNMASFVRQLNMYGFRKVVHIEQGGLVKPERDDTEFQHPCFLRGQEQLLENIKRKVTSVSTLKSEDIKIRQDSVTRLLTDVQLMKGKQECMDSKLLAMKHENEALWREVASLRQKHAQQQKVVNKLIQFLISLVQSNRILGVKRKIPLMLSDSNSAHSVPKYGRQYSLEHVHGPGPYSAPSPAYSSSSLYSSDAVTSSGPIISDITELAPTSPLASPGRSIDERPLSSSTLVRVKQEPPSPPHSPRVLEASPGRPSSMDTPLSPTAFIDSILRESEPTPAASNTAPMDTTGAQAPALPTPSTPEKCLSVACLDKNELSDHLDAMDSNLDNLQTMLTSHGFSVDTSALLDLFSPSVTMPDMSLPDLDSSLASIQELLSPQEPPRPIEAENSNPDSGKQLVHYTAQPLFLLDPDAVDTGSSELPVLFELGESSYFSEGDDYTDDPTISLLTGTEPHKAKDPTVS

Cytochrome P450 2C9 = Cytochrome P450 2C9 (Homo sapiens, UniProt P11712)
Chain of Cytochrome P450 2C9 (P11712 whole entry): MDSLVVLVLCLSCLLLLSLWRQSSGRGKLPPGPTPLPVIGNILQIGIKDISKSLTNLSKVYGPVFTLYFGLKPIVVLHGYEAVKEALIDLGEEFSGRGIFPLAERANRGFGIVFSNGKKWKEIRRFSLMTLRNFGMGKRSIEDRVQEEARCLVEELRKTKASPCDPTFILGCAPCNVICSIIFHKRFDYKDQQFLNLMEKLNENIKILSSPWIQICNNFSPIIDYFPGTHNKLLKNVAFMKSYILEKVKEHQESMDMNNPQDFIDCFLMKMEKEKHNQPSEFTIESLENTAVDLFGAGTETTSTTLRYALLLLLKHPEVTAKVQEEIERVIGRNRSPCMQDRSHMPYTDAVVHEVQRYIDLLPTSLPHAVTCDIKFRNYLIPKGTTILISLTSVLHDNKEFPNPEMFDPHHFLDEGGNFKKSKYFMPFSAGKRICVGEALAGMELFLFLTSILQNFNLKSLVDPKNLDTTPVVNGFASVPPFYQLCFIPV

Structure (SMILES)	AC50 (Cytochrome P450 1A2)	EC50 [2]	IC50 [3]	also measured
CC(C)CCNC(=O)C12CN(Cc3ccccc3)CC1C(c1cccc([N+](=O)[O-])c1)=NO2 (configuration not stated)	14.1 µM (inconclusive)	–	–	–
Cn1cccc1/C=N/N1CCN(c2ccccn2)CC1	–	–	–	IC50 (Large T antigen): 5.17 µM (active); IC50 [1]: 27.6 µM (active)
Cc1ccc2oc(=O)c(/C=C(\O)C(C)(C)C)nc2c1	–	–	–	IC50 (Large T antigen): 11 µM (active)
CCOC(=O)C(CC)/C(C)=N\NC(=O)c1cccc(C)c1 (configuration not stated)	–	> 53 µM (inactive)	> 47.1 µM (inactive)	–
Fc1ccc(C2c3cccn3CCN2C(S)=Nc2cccc(F)c2)cc1 (configuration not stated)	–	> 53 µM (inactive)	> 47.1 µM (inactive)	–
O=C(NCCO)c1nc(C(=O)c2ccc(Cl)cc2)c2ccccc2n1	–	> 53 µM (inactive)	> 47.1 µM (inactive)	–
C[C@@H](CCC(=O)O)C(=O)O	6.31 µM (inconclusive)	–	–	–
CCOC(=O)Cc1csc(NC(=O)c2c(-c3c(Cl)cccc3Cl)noc2C)n1	14.1 µM (inconclusive)	–	–	–
CCCNC(=O)c1ccc(CN2CCc3ccccc3C2)cc1	–	> 53 µM (inactive)	> 47.1 µM (inactive)	–
CCN(CC)c1ccc(NC(=O)CSc2nnc3nc(C)cc(C)n23)cc1	–	–	–	AC50 (Cytochrome P450 2C19): 17.8 µM (inconclusive); IC50 (Large T antigen): 19.8 µM (active); AC50 (Cytochrome P450 3A4): 39.8 µM (inconclusive)
O=C(N/N=C/c1ccc(OC(=O)c2ccco2)cc1)c1ccc[n+]([O-])c1	–	–	–	IC50 (Large T antigen): 55.5 µM (active); AC50 [4]: 24.6 µM (active); EC50 (Protein RecA): 24.6 µM (active)
COc1ccc(-c2nc3cnc(N4CCOCC4)nc3n(CCC#N)c2=O)cc1	3.16 µM (inconclusive)	–	–	–
COc1ccc(S(=O)(=O)N2CCN(c3cc(-c4ccccc4)nc4ncnn34)CC2)cc1	–	–	–	AC50 [5]: 3.89 µM (active); AC50 [6]: 1.6 µM (active)
Cc1nc2ccccc2nc(C)c1=NOCc1ccccc1Cl	–	> 53 µM (inactive)	> 47.1 µM (inactive)	EC50 [7]: > 260 µM (inactive)
COc1cccc(CNC(=O)CN(c2ccc(C(C)C)cc2)S(=O)(=O)c2c(C)noc2C)c1	–	> 53 µM (inactive)	> 47.1 µM (inactive)	–
Cc1cc(NC(=O)c2nn(C)c(C)c2[N+](=O)[O-])no1	25.1 µM (inconclusive)	–	–	–
N#Cc1ccc(S(=O)(=O)N2CCN(C(=O)[C@@H]3CCCN3C(=O)c3cccs3)CC2)cc1	–	> 53 µM (inactive)	> 47.1 µM (inactive)	–
Cc1cccc(C(=O)N2CCc3ccccc3C2)c1[N+](=O)[O-]	–	> 53 µM (inactive)	> 47.1 µM (inactive)	–
CN(Cc1cc(Cl)cc(Cl)c1O)Cc1c(O)ccc2ccccc12	0.631 µM (inconclusive)	–	–	AC50 (Cytochrome P450 2C9): 3.16 µM (inconclusive)
COc1ccc(-c2nc3cnc(Nc4ccccc4)nc3n(Cc3cccs3)c2=O)cc1	25.1 µM (inconclusive)	–	–	AC50 (Cytochrome P450 2C9): 12.6 µM (inconclusive)
